Test results published in patent US11660326B2, “Bacterial-binding peptides for treatment of infectious diseases and related inflammatory processes” (priority 2018, dated 2023).

How the values were obtained:
[1] = test system: G+ and G− bacterial suspensions (including MDR strains); assay: Bacterial agglutination assay; format: cell-based; details: peptide 5, 50 and 200 μg/mL; G+ and G− bacterial suspensions incl. MDR strains
Procedure: FIG. 2. Bacterial agglutination properties of CD6-derived peptides. Increasing concentrations (5, 50 and 200 μg/mL) of the indicated CD6 (PD1, PD2, and PD3), DMBT-1 (pbs1; C+) and CD5 (PD2; C-)-derived peptides were incubated for 2 h at room temperature in 96-well U-bottomed plates with alive bacterial cell suspensions (75×10^6 CFU/mL) in TTC buffer (50 mM Tris pH 7.5 plus 150 mM NaCl, 0.1% Tween 20, and 1 mM Ca^2+). Bacterial agglutination was scored and condensed by two independent observers as −, +/−, +, ++ or +++. (A) Summary of the agglutination results obtained with the indicated panel of Gram-negative (Multidrug resistant Acinetobacter baumanii clinical isolate; Enterobacter cloacae ATCC 23355; Escherichia coli ATCC 25922; Klebsiella pneumoniae ATCC 13883; […]; Pseudomonas aeruginosa ATCC 27853) and Gram-positive (Staphyloccocus aureus ATCC 25923; Methicilin-resistant Staphylococus aureus (MRSA) clinical isolate) bacterial strains. (B) Representative agglutination results obtained for the MRSA clinical isolate.
5×10^8 colony-forming units (CFU)/mL diluted in TTC buffer (50 mM Tris pH 7.5 plus 150 mM NaCl, 0.1% Tween 20, and 1 mM Ca^2+) were mixed (1:1) with different peptide concentrations (0-200 μg/mL) in 96 U-bottomed well microtiter plates (Biofil) (Bikker F J, et al., 2002, Identification of the bacteria-binding peptide domain on salivary agglutinin (gp-340/DMBT1), a member of the scavenger receptor cysteine-rich superfamily, J Biol Chem 277:32109-15). After overnight incubation at 37° C., bacterial agglutination was examined by light microscopy and scored from -(absent) to +++ (maximal) by two independent observers. […]

[2] = test system: mice undergoing CLP-induced septic shock; assay: Mouse survival following CLP-induced septic shock; format: in vivo, C57BL/6J mice; details: for effect on mice survival, in words: CLP-induced sepsis, compared to saline-treated group; for survival: single 6 mg/kg i.v. at +1 h post CLP, FIG. 7
Procedure: FIG. 7. Comparative therapeutic effects of i.v. infused CD6-derived peptides on mouse survival following Cecal Ligation and Puncture (CLP)-induced sepsis. (A, B) C57BL/6J mice were i.v. infused with saline (n=25) or single 6 mg/kg doses of unlabeled CD6- (PD1, n=8; PD2, n=16; PD3, n=15; Pcons, n=12) or DMBT1 (pbs1, n=13) derived peptides at +1 h post CLP induction. A sham group (n=3) was included. In all cases average percent survival was analyzed over time for each group and compared with the saline-treated group using the long-rank t-test (*, P<0.05; **, P<0.01; ***, P<0.001).
FIG. 8. Dose-, time- and via-dependent effects of CD6.PD3 infusion on mouse survival following CLP-induced sepsis. (A) C57BL/6 mice were i.v. infused at +1 h post CLP with saline (n=26) or single increasing doses (3 mg/kg, n=13; 6 mg/kg, n=15; and 12 mg/kg, n=8) of CD6.PD3 peptide. (B) C57BL/6 mice were i.v. infused with saline (n=4) or 6 mg/kg CD6.PD3 at different times post CLP (+1 h, n=5; +3 h, n=5; +6 h, n=6). (C) C57BL/6J mice were i.v. (n=11) or i.p. (n=9) infused with 6 mg/kg CD6.PD3 peptide or saline (n=9) at +1 h post CLP. In all cases, average percent of survival was analyzed over time and compared with the saline-treated group using a log-rank t-test (n.s., not significant; *, P<0.05. **, P<0.01; ***, P<0.001).
FIG. 10. Additive effects of combined administration of CD6.PD3 plus Imipenem/Cilastatin on mouse survival following CLP-induced sepsis. C57BL/6J mice were therapeutically infused at +1 h post CLP with saline (n=36), CD6.PD3 (6 mg/kg i.v.; n=25), Imipenem/Cilastatin (I/C, 50 mg/kg/12 h i.p.; n=9) or a combination of the two later (I/C+PD3, n=11). In all cases average percent survival was analyzed over time for each group and compared to the I/C plus CD6.PD3 group using the long-rank t-test (**, P<0.02; ***, P<0.002).
Animal procedures were approved by the Animal Experimentation Ethical Committee, University of Barcelona. High-grade mortality (≥90% mortality within the first 48-72 h) CLP-induced septic shock was induced in 8-10 week old C57BL/6J male mice (20-25 g; Charles River) as previously reported (Martinez-Florensa M, et al., 2017, Protective Effects of Human and Mouse Soluble Scavenger-Like CD6 Lymphocyte Receptor in a Lethal Model of Polymicrobial Sepsis, Antimicrob Agents Chemother 61:e01391-16).
Survival assays were analyzed by a Log-Rank χ^2 test using GraphPad Prism software. The significance of differences between experimental groups was determined by 2-tailed paired T test with 95% of confidence intervals (CI). P values were considered significant when P<0.05. Statistical analysis (mean±SEM) was performed using a 2-tailed Mann-Whitney test, with 95% of Cl.

[3] = Dynamic light scattering (DLS), hydrodynamic size of peptides in solution; format: physicochemical; details: 10 μg/mL in PBS, 25° C.
Procedure: FIG. 5. Analysis of the hydrodynamic size of CD6-derived peptides in solution. The dynamic light scattering (DLS) analysis of the hydrodynamic diameter of CD6 (PD1, PD2, PD3, and Pcons) and DMBT-1/SAG (pbs1) derived peptides (10 μg/mL) in PBS is shown. The y axis represents the relative intensity of the scattered light; the x axis denotes the hydrodynamic diameter of the particles present in the solution. One representative experiment of four performed is shown (left). The numeric values obtained for each peptide are also shown (right).
The hydrodynamic diameters of peptides (10 μg/mL in PBS) were measured at 25° C. in a Zetasizer Nano S from Malvern Instruments (Worcestershire, UK) equipped with a 633 nm HeNe laser, as described (Saenz A, et al., 2010, Fluidizing effects of C-reactive protein on lung surfactant membranes: protective role of surfactant protein A, FASEB J 24:3662-73). Four scans were recorded for each sample, and samples were analyzed in triplicate.

| Sequence | bacterial agglutination [1] | survival rate post CLP ([2]; 3 mg/kg i.v. at +1 h post CLP, FIG. 8A) [%] | survival, i.v. versus i.p. pathway ([2]; 6 mg/kg at +1 h post CLP, FIG. 8C) | survival rate post CLP ([2]; 6 mg/kg i.v. at +1 h post CLP, FIG. 8A) [%] | survival rate post CLP ([2]; 6 mg/kg i.v. at +1 h post CLP, FIG. 8B) [%] | survival rate post CLP ([2]; 6 mg/kg i.v. at +3 h post CLP, FIG. 8B) [%] | survival rate post CLP ([2]; 12 mg/kg i.v. at +1 h post CLP, FIG. 8A) [%] | mice survival ([2]; +1 h post CLP, CD6.PD3 6 mg/kg i.v., Imipenem/Cilastatin 50 mg/kg/12 h i.p., FIG. 10) [%] | effect on mice survival, in words [2] | survival [2] [%] | hydrodynamic size, first (or single) peak [3] [nm] | hydrodynamic size, second peak [3] [nm] |
| --- | --- | --- | --- | --- | --- | --- | --- | --- | --- | --- | --- | --- |
| GQVEVHFRGVW (CD6.PD3) | dose-dependent agglutination | 23.08 | No significant differences | 37.5 | 40 | 20 | 40 | 30.8 | improves the survival | 36.36 | 630±3 | 5151±7 |
| GRVEMLEHGEW [CD6.PD2] | not and lower bacterial agglutination properties | – | – | – | – | – | – | – | – | 12.5 | 379±5 | – |
| GTVEVRLEASW [CD6.PD1] | dose-dependent agglutination | – | – | – | – | – | – | – | No significant effects | – | 321±5 | 1484±8 |
